Data reported in patent US7037913B2, “Bicyclo 4.4.0 antiviral derivatives” (priority 2002, dated 2006).

Test system: HIV-1 single-round infectious reporter virus
Assay: Single-round infectious HIV-1 luciferase reporter virus infection of HeLa CD4 CCR5 cells
Format: cell-based
Conditions: Human immunodeficiency virus 1, HeLa-CD4/CCR5, 72 h, read-out: Group (EC50)
Text: The materials and experimental procedures used to obtain the results for representative compounds of Formula I reported in Tables 7–9 are described below.
• Virus production—Human embryonic Kidney cell line, 293, propagated in Dulbecco's Modified Eagle Medium (Life Technologies, Gaithersburg, Md.) containing 10% fetal Bovine serum (FBS, Sigma, St. Louis, Mo.). • Virus infection—Human epithelial cell line, HeLa, expressing the HIV-1 receptors CD4 and CCR5 was propagated in Dulbecco's Modified Eagle Medium (Life Technologies, Gaithersburg, Md.) containing 10% fetal Bovine serum (FBS, Sigma, St. Louis, Mo.) and supplemented with 0.2 mg/ml Geneticin (Life Technologies, Gaithersburg, Md.) and 0.4 mg/ml Zeocin (Invitrogen, Carlsbad, Calif.). • Virus—Single-round infectious reporter virus was produced by co-transfecting human embryonic Kidney 293 cells with an HIV-1 envelope DNA expression vector and a proviral cDNA containing an envelope deletion mutation and the luciferase reporter gene inserted in place of HIV-1 nef sequences (Chen et al, Ref. 41). […] Viral infection was monitored by measuring luciferase expression from viral DNA in the infected cells using a luciferase reporter gene assay kit (Roche Molecular Biochemicals, Indianapolis, Ind.). […] Luciferase activity was then quantified by measuring luminescence using a Wallac microbeta scintillation counter. • 5. […]

`C[C@@H]1CN(C(=O)c2ccccc2)CCN1C(=O)C(F)(F)c1ccc2ccccc2c1` [Example 54] was tested, and the EC50 was under 1000 nM.
`C[C@@H]1CN(C(=O)c2ccccc2)CCN1C(=O)C1(c2ccc3ccccc3c2)CC1` [Example 55] was tested, and the EC50 was under 1000 nM.
